# Patent US7153855B2, “Pyrazolopyridinyl pyrimidine therapeutic compounds” (SmithKline Beecham Corporation, priority 2001, dated 2006)
# System: HSV-1
# Experiment: HSV-1 infection of Vero 76 cells, viral DNA detected by hybridization capture (chemiluminescence)
# Assay type: cell-based
# Conditions: Human alphaherpesvirus 1; HSV-1 in Vero 76 cells, MOI=0.001, compounds incubated 40–48 hours at 37° C.; read-out: IC50
# Source text: In the following example, “MEM” means Minimal Essential Media; “FBS” means Fetal Bovine Serum; “NP40” and “Igepal” are detergents; “MOI” means Multiplicity of Infection; “NaOH” means sodium hydroxide; “MgCl2” means magnesium chloride; “dATP” means deoxyadenosine 5′ triphosphate; “dUTP” means deoxyuridine 5′ triphosphate; “dCTP” means dexoxycytidine 5′ triphosphate; “dGTP” means deoxyguanosine 5′ triphosphate; “GuSCN” means Guanidinium thiocyanate; “EDTA” means ethylenediamine tetraacetic acid; “TE” means Tris-EDTA; “SCC” means sodium chloride/sodium citrate; “APE” means a solution of ammonia acetate, ammonia phosphate, EDTA; “PBS” means phosphate buffered saline; and “HRP” means horseradish peroxidase.
# Vero 76 cells were maintained in MEM with Earle's salts, L-glutamine, 8% FBS (Hyclone, A-1111-L) and 100 units/mL Penicillin-100 μg/mL Streptomycin. For assay conditions, FBS was reduced to 2%. Cells are seeded into 96-well tissue culture plates at a density of 5×10^4 cells/well after being incubated for 45 min at 37° C. in the presence of HSV-1 or HSV-2 (MOI=0.001). Test compounds are added to the wells and the plates are incubated at 37° C. for 40–48 hours. Cell lysates are prepared as follows: media was removed and replaced with 150 μL/well 0.2 N NaOH with 1% Igepal CA 630 or NP-40. Plates were incubated up to 14 days at room temperature in a humidified chamber to prevent evaporation.
# For the detection probe, a gel-purified, digoxigenin-labeled, 710-bp PCR fragment of the HSV UL-15 sequence was utilized. PCR conditions included 0.5 μM primers, 180 μM dTTP, 20 μM dUTP-digoxigenin (Boehringer Mannheim 1558706), 200 μM each of dATP, dCTP, and dGTP, 1×PCR Buffer II (Perkin Elmer), 2.5 mM MgCl2, 0.025 units/μL of AmpliTaq Gold polymerase (Perkin Elmer), and 5 ng of gel-purified HSV DNA per 100 μL Extension conditions were 10 min at 95° C., followed by 30 cycles of 95° C. for 1 min, 55° C. for 30 sec, and 72° C. for 2 min. The amplification was completed with a 10-min incubation at 72° C. Primers were selected to amplify a 728 bp probe spanning a section of the HSV1 UL15 open reading frame (nucleotides 249–977). Single-stranded transcripts were purified with Promega M13 Wizard kits. The final product was mixed 1:1 with a mixture of 6 M GuSCN, 100 mM EDTA and 200 μg/mL herring sperm DNA and stored at 4° C.
# The capture DNA plasmid (HSV UL13 region in pUC) was linearized by cutting with Xba I, denatured for 15 min at 95° C. and diluted immediately into Reacti-Bind DNA Coating Solution (Pierce, 17250, diluted 1:1 with TE buffer, pH 8) at 1 ng/μL 75 μL/well were added to Corning (#3922 or 9690) white 96-well plates and incubated at room temperature for at least 4 hrs before washing twice with 300 μL/well 0.2×SSC/0.05% Tween-20 (SSC/T buffer). The plates were then incubated overnight at room temperature with 150 μL/well 0.2 N NaOH, 1% IGEPAL and 10 μg/mL herring sperm DNA.
# Twenty-seven (27) μL of cell lysate was combined with 45 μL of hybridization solution (final concentration: 3M GuSCN, 50 mM EDTA, 100 μg/ml salmon sperm DNA, 5×Denhardt's solution, 0.25×APE, and 5 ng of the digoxigenin-labeled detection probe). APE is 1.5 M NH4-acetate, 0.15 M NH4H2 phosphate, and 5 mM EDTA adjusted to pH 6.0. Mineral oil (50 μL) was added to prevent evaporation. The hybridization plates were incubated at 95° C. for 10 minutes to denature the DNA, then incubated at 42° C. overnight. The wells were washed 6× with 300 μL/well SSC/T buffer then incubated with 75 μL/well anti-digoxigenin-HRP-conjugated antibody (Boehringer Mannheim 1207733, 1:5000 in TE) for 30 min at room temperature. The wells were washed 6× with 300 μL/well with PBS/0.05% Tween-20 before 75 μL/well SuperSignal LBA substrate (Pierce) was added. The plates were incubated at room temperature for 30 minutes and chemiluminescence was measured in a Wallac Victor reader.
# The following results were obtained for HSV-1.
row,Compound,IC50 [nM]
1,"c1cc(-c2ccncc2)cc(-c2nn3c(NC4CCCC4)cccc3c2-c2ccnc(NC3CCCC3)n2)c1 [Example 31, N-Cyclopentyl-3-[2-(cyclopentylamino)-4-pyrimidinyl]-2-[3-(4-pyridinyl)phenyl]pyrazolo[1,5-a]pyridin-7-amine]",2000
2,"c1cc(-c2ccsc2)cc(-c2nn3c(NC4CCCC4)cccc3c2-c2ccnc(NC3CCCC3)n2)c1 [Example 32, N-Cyclopentyl-3-[2-(cyclopentylamino)-4-pyrimidinyl]-2-[3-(3-thienyl)phenyl]pyrazolo[1,5-a]pyridin-7-amine]",600
3,"CS(=O)(=O)Nc1cccc(-c2nn3c(NC4CCCC4)cccc3c2-c2ccnc(NC3CCCC3)n2)c1 [Example 36, N-(3-{7-(Cyclopentylamino)-3-[2-(cyclopentylamino)-4-pyrimidinyl]-pyrazolo[1,5-a]pyridin-2-yl}phenyl)methanesulfonamide]",3000
4,"Nc1cccc(-c2nn3c(N4CCCC4)cccc3c2-c2ccnc(NC3CCCC3)n2)c1 [Example 37, 4-[2-(3-Aminophenyl)-7-(1-pyrrolidinyl)pyrazolo[1,5-a]pyridin-3-yl]-N-cylopentyl-2-pyrimidinamine]",3000
5,"c1ccc(-c2nn3c(NC4CCCC4)cccc3c2-c2ccnc(NC3CCCC3)n2)cc1 [Example 38, N-Cyclopentyl-3-[2-(cyclopentylamino)-4-pyrimidinyl]-2-phenylpyrazolo-[1,5-a]pyridin-7-amine]",300
6,"NC(=O)c1cccc(-c2nn3c(NC4CCCC4)cccc3c2-c2ccnc(NC3CCCC3)n2)c1 [Example 40, 3-{7-(Cyclopentylamino)-3-[2-(cyclopentylamino)-4-pyrimidinyl]-pyrazolo[1,5-a]pyridin-2-yl}benzamide]",2500
7,"Nc1cc(-c2nn3c(NC4CCCC4)cccc3c2-c2ccnc(NC3CCCC3)n2)ccc1Cl [Example 44, 2-(3-Amino-4-chlorophenyl)-N-cyclopentyl-3-[2-(cyclopentylamino)-4-pyrimidinyl]pyrazolo[1,5-a]pyridin-7-amine]",1800
8,"Cc1cccc(-c2nn3c(NC4CCCC4)cccc3c2-c2ccnc(NC3CCCC3)n2)c1 [Example 46, N-Cyclopentyl-3-[2-(cyclopentylamino)-4-pyrimidinyl]-2-(3-methylphenyl)pyrazolo[1,5-a]pyridin-7-amine]",200
9,"Cc1cccc(-c2nn3c(NC4CCCC4)cccc3c2-c2nc(NC3CCCC3)nc(C)c2C)c1 [Example 48, N-cyclopentyl-3-[2-(cyclopentylamino)-5,6-dimethyl-4-pyrimidinyl]-2-(3-methylphenyl)pyrazolo[1,5-a]pyridin-7-amine]",> 40000
10,"Cc1cccc(-c2nn3c(NC(C)C)cccc3c2-c2ccnc(NC3CCCC3)n2)c1 [Example 49, 3-[2-(Cyclopentylamino)-4-pyrimidinyl]-N-isopropyl-2-(3-methylphenyl)pyrazolo[1,5-a]pyridin-7-amine]",500
11,"COc1cccc(-c2nn3c(Cl)cccc3c2-c2ccnc(NC3CCCC3)n2)c1 [Example 50, 4-[7-Chloro-2-(3-methoxyphenyl)pyrazolo[1,5-a]pyridin-3-yl]-N-cyclopentyl-2-pyrimidinamine]",2500
12,"COc1cccc(-c2nn3c(NC(C)C)cccc3c2-c2ccnc(NC3CCCC3)n2)c1 [Example 52, 3-[2-(Cyclopentylamino)-4-pyrimidinyl]-N-isopropyl-2-(3-methoxyphenyl)pyrazolo[1,5-a]pyridin-7-amine]",560

# Continued by falling IC50, values first:
row,IC50 [nM],Compound
1,22000,"CCCCNc1nccc(-c2c(-c3ccc(NCc4ccccc4)cc3)nn3c(NCCCC)cccc23)n1 [Example 45, 2-[4-(Benzylamino)phenyl]-N-butyl-3-[2-(butylamino)-4-pyrimidinyl]-pyrazolo[1,5-a]pyridin-7-amine]"
2,5000,"Nc1nccc(-c2c(-c3cccc(Br)c3)nn3c(N4CCCC4)cccc23)n1 [Example 28, 4-[2-(3-Bromophenyl)-7-(1-pyrrolidinyl)pyrazolo[1,5-a]pyridin-3-yl]-2-pyrimidinamine]"
3,3500,"O=C(O)c1cccc(-c2nn3c(NC4CCCC4)cccc3c2-c2ccnc(NC3CCCC3)n2)c1 [Example 41, 3-{7-(Cyclopentylamino)-3-[2-(cyclopentylamino)-4-pyrimidinyl]pyrazolo-[1,5-a]pyridin-2-yl}benzoic acid]"
4,3000,"c1ccc(-c2cccc(-c3nn4c(NC5CCCC5)cccc4c3-c3ccnc(NC4CCCC4)n3)c2)cc1 [Example 29, 2-[1,1′-Biphenyl]-3-yl-N-cyclopentyl-3-[2-(cyclopentylamino)-4-pyrimidinyl]pyrazolo[1,5-a]pyridin-7-amine]"
5,2000,"CC(=O)Nc1cccc(-c2nn3c(NC4CCCC4)cccc3c2-c2ccnc(NC3CCCC3)n2)c1 [Example 35, N-(3-{7-(Cyclopentylamino)-3-[2-(cyclopentylamino)-4-pyrimidinyl]pyrazolo[1,5-a]pyridin-2-yl}phenyl)acetamide]"
6,1500,"Nc1nccc(-c2c(-c3cccc(Br)c3)nn3c(NC4CCCC4)cccc23)n1 [Example 27, N-[3-(2-Amino-4-pyrimidinyl)-2-(3-bromophenyl)pyrazolo[1,5-a]pyridin-7-yl]-N-cyclopentylamine]"
7,1400,"COc1ccc(-c2nn3c(NC4CCCC4)cccc3c2-c2ccnc(NC3CCCC3)n2)cc1Br [Example 42, N-{4-[2-(3-Bromo-4-methoxyphenyl)-7-(cyclopentylamino)pyrazolo[1,5-a]pyridin-3-yl]-2-pyrimidinyl}-N-cyclopentylamine]"
8,800,"c1ccc(-c2cccc(-c3nn4c(N5CCCC5)cccc4c3-c3ccnc(NC4CCCC4)n3)c2)cc1 [Example 30, 4-[2-[1,1′-Biphenyl]-3-yl-7-(1-pyrrolidinyl)pyrazolo[1,5-a]pyridin-3-yl]-N-cyclopentyl-2-pyrimidinamine]"
9,800,"c1cc(-c2cccs2)cc(-c2nn3c(NC4CCCC4)cccc3c2-c2ccnc(NC3CCCC3)n2)c1 [Example 33, N-Cyclopentyl-3-[2-(cyclopentylamino)-4-pyrimidinyl]-2-[3-(2-thienyl)-phenyl]pyrazolo[1,5-a]pyridin-7-amine]"
10,600,"Nc1cccc(-c2nn3c(NC4CCCC4)cccc3c2-c2ccnc(NC3CCCC3)n2)c1 [Example 34, 2-(3-Aminophenyl)-N-cyclopentyl-3-[2-(cyclopentylamino)-4-pyrimidinyl]pyrazolo[1,5-a]pyridin-7-amine]"
11,500,"N#Cc1cccc(-c2nn3c(NC4CCCC4)cccc3c2-c2ccnc(NC3CCCC3)n2)c1 [Example 39, 3-{7-(Cyclopentylamino)-3-[2-(cyclopentylamino)-4-pyrimidinyl]pyrazolo[1,5-a]pyridin-2-yl}benzonitrile]"
12,500,"Clc1ccc(-c2nn3c(NC4CCCC4)cccc3c2-c2ccnc(NC3CCCC3)n2)cc1Br [Example 43, 2-(3-Bromo-4-chlorophenyl)-N-cyclopentyl-3-[2-(cyclopentylamino)-4-pyrimidinyl]pyrazolo[1,5-a]pyridin-7-amine]"
13,210,"COc1cccc(-c2nn3c(NC4CCCC4)cccc3c2-c2ccnc(NC3CCCC3)n2)c1 [Example 51, N-Cyclopentyl-3-[2-(cyclopentylamino)-4-pyrimidinyl]-2-(3-methoxyphenyl)pyrazolo[1,5-a]pyridin-7-amine]"
